According to PMC7961786, “Magic Peptide: Unique Properties of the LRR11 Peptide in the Activation of Leukotriene Synthesis in Human Neutrophils” (International Journal of Molecular Sciences, 2021):
“Also recorded” adds a separate entry of the source.

What was measured:
5′-biotinylated B-CpG = assay: TSM acoustic biosensor, peptide binding to immobilized B-CpG
Text: To characterize the interaction of the studied synthetic ODNs with the LRR11 peptide, we applied the thickness shear mode (TSM) acoustic biosensor method, which is based on the investigation of ultrasonic waves in piezoelectric materials such as AT-cut quartz. This approach involved immobilizing a 5′-biotinylated ODN on the surface of TSM transducer covered by NeutrAvidin and then adding the LRR11 peptide. An unrelated peptide (URP) with a random primary structure ([…]) was used as a negative control. The measurement procedure was divided into several steps, in which each immobilization stage was followed by washing with an appropriate buffer solution; when peptide solutions at different concentrations (from 1 to 100 nM) were added to the surface-modified TSM transducer, a wash with Hanks buffer was used before increasing the peptide concentration.
Based on Langmuir isotherm Equation (1), (1) Δfcc=Δfsmaxc/KD+c where Δfs(c) is the frequency change at a certain peptide concentration under equilibrium conditions, (Δfs)max is the maximum frequency change, c is the peptide concentration, and KD is the equilibrium constant of dissociation, we estimated the (Δfs)max and KD values for binding of the LRR11 peptide to C-CpG and B-CpG (Table 3).
Eight MHz AT-cut piezoelectric quartz crystal transducer was obtained from CH Instruments, Austin, TX, USA. The transducer was covered on both sides with thin layers of gold that served as electrodes (working area 0.2 cm^2). Prior ODNs immobilization, the crystal was carefully cleaned with basic Piranha solution (29% NH3, 30% H2O and H2O2 with volumetric 1:5:1 ratio, respectively) for 25 min. After the thorough cleaning, the crystal was positioned between two silicon O-rings in a flow-through cell. The analyte was injected into the cell using a Genie Plus syringe pump (Kent Scientific, Torrington, CT, USA) at a flow rate of 50 μL/min. Each solution was applied until the resonance frequency stabilized. The surface of the transducer was first washed with deionized water, and then 125 μg/mL NeutrAvidin (WWR International GmbH, Vienna, Austria) solution in water was applied. Approximately 15 min were required to stabilize the signal at a constant NeutrAvidin flow rate. This was followed by washing with water to rinse out all non-chemisorbed NeutrAvidin molecules. Immobilization of ODN on the gold surface of the crystals is accomplished using avidin–biotin interactions. A 1 μM 5′-biotinylated ODN solution was injected over the neutravidin-modified surface and subsequently the crystal was washed again with water. The system was then equilibrated using Hanks buffer solution. This buffer was suitable for studying LRR11–ODN binding. Then LRR11 was used at concentrations of 1, 5, 10, 50 and 100 nM […] in Hanks buffer. After each addition of LRR11, the sensor surface was washed with Hanks buffer and LRR11 with the higher concentration was added. All binding experiments were carried out at room temperature. Buffer and sample solutions were introduced in a flow-through format. A network analyzer 8712ES (Agilent Technologies, Santa Clara, CA, USA) was used to measure the impedance properties of the sensor and determine fS and Rm.

human neutrophils = assay: Reactive oxygen species formation (H2DCF-DA); assay type: cell-based; details: n = 3, Figure 8
Method: Figure 8 When added simultaneously, LRR11 potentiates the prooxidant effects of oligonucleotides. H2DCF-DA-stained PMNLs (1 × 10^6/mL) were cultured for 1 h at 37 °C in 5% CO2 without additives or in the presence of 1 µM ODN, supplemented (shaded) or not (solid fill) with 1 µM LRR11. DCF green fluorescence signals (ex. 485 nm, em. 538 nm) were monitored every 5 min for an hour. Values represent the means ± SEM of DCF fluorescence intensity increments (RFU) in 30 min after stimulus addition (n = 3). * p < 0.05 for the pairs of data specified, as indicated by two-way ANOVA followed by Tukey’s multiple comparison test.
The level of intracellular production of reactive oxygen species was monitored by measuring the green fluorescence of H2DCF-DA-labeled oxidized product incorporated into cells according to the manufacturer’s protocol. Briefly, human neutrophils were incubated with 5 μM carboxy-H2DCF-DA (Molecular Probe, Eugene, OR, USA) for 60 min at room temperature, followed by rinsing with PBS. […] Fluorescent cell staining (excitation at 485 nm and emission at 538 nm) was recorded at CLARIOstar fluorescence microplate reader, using MARS Data Analysis Software, version 3.30 (both hardware and software are from BMG Labtech, Ortenberg, Germany).

NeutrAvidin = assay: TSM acoustic biosensor, immobilization of 5′-biotinylated C-CpG on NeutrAvidin surface; assay type: binding; details: Sauerbrey's equation, 1 μM 5′-biotinylated ODN on NeutrAvidin
Text: Using Sauerbrey’s Equation (2), (2) Δf=−2f02Δm/Aμqρq where f0 is the fundamental resonance frequency (in our case 8 MHz), Δm is the change in mass (in grams) of the adsorbed layer on the crystal surface, A is the effective crystal area (in our case 0.2 cm^2), μq = 2.947 × 10^11 g × cm^−1s^−2 is the shear modulus of elasticity, and ρq = 2.648 g × cm^−3 is the crystal density, surface concentrations of NeutrAvidin, ODN and LRR11 peptide were estimated based on changes of resonance frequency (Figure 4). According to Equation (2), the surface density of molecules, σ (in molecules/cm^2), can be calculated as σ = ΔmNA/(A × Mw), where NA is Avogadro’s number (=6.023 × 10^23 mol^−1), and Mw represents the molecular weight of the corresponding compound (NeutrAvidin: 65 kDa, 5′-biotinylated C-CpG: 7115.4 Da, and LRR11: 3421 Da). Based on this approach, we obtained the following surface concentration values: 1.94 × 10^13 cm^−2 for NeutrAvidin, 3.37 × 10^13 cm^−2 for C-CpG and 2.4 × 10^13 cm^−2 for LRR11. The NeutrAvidin has four binding sites, two of which are available for biotinylated ODN binding. This is due to the fact that the other two sites are inaccessible due to NeutrAvidin chemisorption on the TSM surface. Thus, the number of available binding sites for the ODN is 3.88 × 10^13 cm^−2. […] Therefore, the surface of the TSM transducer is practically completely saturated by C-CpG. […]

QLRKLNLSFNYQKRVSFAHLSLAPSFGSLV [LRR11, 30 amino acid peptide from leucine-rich repeat of TLR9]
change of ∆fs at low LRR11 concentrations (5′-biotinylated B-CpG; 1, 5, 10 nM LRR11, B-CpG): not significant or small changes of ∆fs | Kd (5′-biotinylated B-CpG; LRR11-B-CpG complex, Langmuir fit, Hanks buffer, room temperature, LRR11 1-100 nM, three independent experiments): 55.1 ± 17.4 nM | effect of LRR11 on prooxidant potential of ODNs (human neutrophils; 1 µM LRR11 + 1 µM ODN, 30 min): Notably enhancing the prooxidant potential of the studied ODNs, in particular, CpG-containing ones; also recorded: only CpG-ODNs in combination with LRR11 enhanced responses | effect of LRR11 alone on synthesis of reactive oxygen species (human neutrophils; 1 µM LRR11, 37 °C): does not affect the synthesis of reactive oxygen species

5′-tcgtcgttttcggcgcgcgccg-3′ (DNA TCGTCGTTTTCGGCGCGCGCCG; chemistry not fully specified) [C-CpG]
surface concentration of C-CpG (NeutrAvidin): 3.37 × 10^13 cm^−2
